US9085557B2, “Quinolylpiperazino substituted thiolactone compounds and process for the preparation thereof” (Council of Scientific and Industrial Research, priority 2010, dated 2015)
Converted amounts (≈) assume the structure as drawn.

How the values were obtained:
M. tuberculosis H37Rv = experiment: In vivo efficacy in murine model of M. tuberculosis H37Rv infection; parameters: species or system mice (BALB/c)
Protocol: The Compound 3f used in this study ([…]). The compound 3f was tested in vivo at 25 mg/kg. Rifampicin at 20 mg/kg was also tested as positive control. For in vivo studies compound and rifampicin was dissolved in pure DMSO and formulation was prepared 50% PEG in water for oral administration. The final concentration of DMSO was less than 0.1% v/v.
The institutional animal Ethics committee of the Indian Institute of Integrative Medicine (CSIR, Jammu) approved all experimental protocols with animals and the use of animals. The animals were bred and maintained under standard husbandry conditions; viz. humidity, temperature (25±2° C.). 8-week-old female (BALB/c) mice 20-22 gm by weight were used for the efficacy studies. Animals were allowed 1 week of acclimation before intake into experimental studies. Feed and water were given ad libitum.
Infection of M. tuberculosis:
M. tuberculosis (H37Rv) for infection was grown by the culturing of bacteria from Lowenstein-Jensen slant in Middlebrooke 7H9 medium on a rotary shaker for 10 days at 37° C. […] The mice were sacrificed after week post infection (early control), and bacterial numbers in the lungs were determined by macerating the organs (lung) and plating serial tenfold serial dilution on Middlebrook 7H10 agar plates in triplicates. […]
Eight infected mice were sacrificed from the control group 7 day after the infection (before the initiation of treatment) to obtain the initial CFU load of M. tuberculosis H37Rv at the initiation of treatment. […] Viable bacteria were quantitated by plating 10-fold serial dilutions in duplicates on Middlebrook, 7H10 agar supplemented with 10% OADC (oleic acid albumin dextrose catalase, Becton Dickinson, Sparks, Md.) and incubated at 37° C. in 5% CO2 for 4-6 weeks. CFU per organ sample was counted and expressed as log10 CFU per organ. CFU during in-vivo studies were determined on Middlebrook 7H10 plates supplement with 10% OADC containing Vancomycin 10 μg/ml, Amphoterecin 10 μg/ml, Nalidaxic acid 25 μg/ml. […]

AML-12 cells = experiment: Cytotoxicity assay (MTT) on cell line AML-12; type: cell-based
Protocol: The study was carried out using AML-12 cells line (ATCC-USA). Cells were grown in Dulbecco's Modified Eagle's Medium (DMEM) containing 10% fetal calf serum (FCS) and supplemented with 100 units/ml penicillin, 100 μg/ml streptomycin, 0.005 mg/ml insulin, 0.005 mg/ml transferrin, 5 ng/ml selenium, and 40 ng/ml dexamethasone, in a humidified atmosphere in 5% CO2 at 37° C., and were sub-cultured at 1:5 ratio once a week.
Cells were plated at a density of 3×10^4 cells/cm^2 and maintained in culture medium for 12 h after trypsinization. Cells were seeded onto 96-well plates and FCS was reduced to 5% for the experiment. Stock solutions of compound 3f were prepared fresh to avoid oxidation. Cells were incubated with the compounds (2-100 μg/ml) for 24 hrs.
After the completion of treatment, the medium was removed and cell viability was evaluated by assaying for the ability of functional mitochondria to catalyze the reduction of 3-(4,5-dimethylthiazol-2-yl)-2,5-diphenyltetrazolium bromide (MTT) to form formazan salt by mitochondrial dehydrogenases, and determined by Elisa reader at 565 nm (Multiskan Spectrum; Thermo Electron Corporation, USA). Percentage cytotoxicity was calculated with respect to the untreated cells.

[1] = system: M. tuberculosis XDR-1 (XDR- strain); experiment: microbe, parasite or virus in culture; type: cell-based, Mycobacterium tuberculosis; details: for in vitro activity (words): XDR clinical isolates
[2] = system: M. tuberculosis -617 (MDR- strain); experiment: microbe, parasite or virus in culture; type: cell-based, Mycobacterium tuberculosis; details: for in vitro activity (words): MDR clinical isolates
[3] = system: M. tuberculosis H37Rv (ATCC 27294); experiment: MIC determination by broth dilution against M. tuberculosis H37Rv; type: cell-based, Mycobacterium tuberculosis; details: for in vitro activity (words): M. tuberculosis H37Rv / sensitive isolates

CC1=C(OCCCCCCCCCCCCN2CCN(c3ccnc4cc(C(F)(F)F)ccc34)CC2)C(C)SC1=O (stereo not drawn) [Compound 3f, 3,5-dimethyl-4-[(12-4-[7-(trifluoromethyl)-4-quinolyl]piperazinododecyl)oxy]-5H-thiophen-2-one]
type of in vivo activity (log CFU in lungs versus early control) (M. tuberculosis H37Rv; 25 mg/kg oral, 4 weeks): bacteriostatic activity | Log10 CFU/left Lung (mean ± SD) (M. tuberculosis H37Rv; BALB/c mice, intranasal infection, treatment from 1 week post infection, PO once daily for 4 weeks, RIF 20 mg/kg, 3f 25 mg/kg): 6.2 ± 0.34 Log10 CFU/left Lung | IC50 (extrapolate), cytotoxicity on AML-12 (AML-12 cells): IC50 > 433 μg/ml (extrapolate) | MIC ([1]; M. tuberculosis XDR-1 clinical isolate, broth dilution, 3 weeks): 0.5 mg/L (≈ 0.845 µM) | in vitro activity (words) ([1]; listed as Compound 3f): active | in vitro activity (words) ([1]; listed as compound 3f): exhibits in vitro activity | MIC ([2]; M. tuberculosis 617 MDR clinical isolate, broth dilution, 3 weeks): 0.5 mg/L (≈ 0.845 µM) | in vitro activity (words) ([2]; listed as Compound 3f): active | in vitro activity (words) ([2]; listed as compound 3f): exhibits in vitro activity | in vitro activity (words) ([3]; listed as Compound 3f): active | in vitro activity (words) ([3]; listed as compound 3f): exhibits in vitro activity | MIC ([3]; M. tuberculosis H37Rv, broth dilution, 3 weeks at 37° C., read visually (no turbidity)): 0.5 mg/L (≈ 0.845 µM)
